Experimental data reported in patent US20260242415A1 (priority 2022, published 2026).
Positions of bridges follow the written chain, without caps; N, C: chain ends. Non-standard residues stand in square brackets, D forms with d. Chains are numbered I, II in the order given. AEEA = NCCOCCOCC(=O)O

What was measured:
[1] = tested on: VSV pseudotyped with spike protein from SARS-CoV-2
[2] = tested on: VSV pseudotyped with spike protein from SARS-CoV-1
[3] = tested on: VSV pseudotyped with spike protein from WIV-16
[4] = target: full length SARS-CoV-2 Spike (Severe acute respiratory syndrome coronavirus 2, UniProt P0DTC2); assay type: binding; conditions: 10 µM
[5] = tested on: spike protein of the SARS-CoV-2 virion; assay type: binding

## CC[C@H](C)[C@@H]1NC(=O)[C@H](CCC(N)=O)NC(=O)[C@H](CCC(=O)O)NC(=O)[C@H](CCCNC(=N)N)NC(=O)[C@@H]2CCCN2C(=O)[C@H](CCCNC(=N)N)NC(=O)[C@H](CCCNC(=N)N)NC(=O)[C@H](Cc2ccc(O)cc2)NC(=O)CSC[C@@H](C(=O)NCC(N)=O)NC(=O)[C@H](Cc2ccccc2)NC(=O)[C@H](C(C)C)NC(=O)[C@H](Cc2c[nH]c3ccccc23)NC(=O)[C@H](CC(C)C)NC(=O)[C@H](CO)NC(=O)CNC(=O)[C@H]([C@@H](C)CC)NC(=O)[C@H]([C@@H](C)CC)NC1=O [Compound S1b3inL1]
Whole SARS-CoV-2 virus
  IC50: 5200 nM
SARS-CoV-2 pseudoviruses
  IC50: 1500 nM
SARS2-S pseudotyped VSV
  IC50: 810 nM
[1]
  IC50: 1700 nM
[2]
  IC50: 2200 nM
[3]
  IC50: 7000 nM

## CC[C@H](C)[C@@H]1NC(=O)[C@H](C(C)C)NC(=O)[C@H](CC(C)C)NC(=O)[C@H](CCCCN)NC(=O)[C@H](CCCNC(=N)N)NC(=O)[C@@H]2CCCN2C(=O)[C@H](C(C)C)NC(=O)[C@H](CCCNC(=N)N)NC(=O)[C@H](Cc2ccc(O)cc2)NC(=O)CSC[C@@H](C(=O)NCC(N)=O)NC(=O)[C@H](Cc2ccccc2)NC(=O)[C@H](CC(N)=O)NC(=O)[C@H](Cc2c[nH]c3ccccc23)NC(=O)[C@H](C(C)C)NC(=O)[C@H](CO)NC(=O)CNC(=O)[C@H]([C@@H](C)CC)NC1=O [Compound S1b3inL4]
Whole SARS-CoV-2 virus
  IC50: 11400 nM
[4]
  ΔTm, melting point change: 0 °C
[5]
  enrichment in final round (% of total sequences): 1.50%

## CC[C@H](C)[C@@H]1NC(=O)[C@H](Cc2ccc(O)cc2)NC(=O)CSC[C@@H](C(=O)NCC(N)=O)NC(=O)[C@H](C(C)C)NC(=O)[C@H](Cc2ccc(O)cc2)NC(=O)[C@H](CCC(N)=O)NC(=O)[C@H](C(C)C)NC(=O)[C@H](Cc2c[nH]cn2)NC(=O)[C@H]([C@@H](C)O)NC(=O)[C@H](CO)NC(=O)[C@H](Cc2ccc(O)cc2)NC(=O)[C@H](CC(C)C)NC(=O)[C@H](CO)NC(=O)[C@H](CC(=O)O)NC(=O)[C@H](Cc2c[nH]cn2)NC(=O)[C@H](Cc2c[nH]c3ccccc23)NC(=O)[C@H](C(C)C)NC1=O [SARS2L1]
Whole SARS-CoV-2 virus
  IC50: > 100000 nM
SARS2-S pseudotyped VSV
  IC50: 410 nM

## CFFWYENYYTAITVT [SARS1spikeL3]
[5]
  enrichment in final round (% of total sequences): 2.90%

## I: {CH2CO}-YRRPREQIIIGSLWVFCG[AEEA][AEEA]KG-NH2 / II: {CH2CO}-YRRPREQIIIGSLWVFCG[AEEA][AEEA] (amide I:21-II:C; thioether I:N-I:17, II:N-II:17) [Dimer 2]
SARS-CoV-2 pseudoviruses
  IC50: 50 nM

## I: {CH2CO}-YRRPREQIIIGSLWVFCG[AEEA][AEEA][AEEA][AEEA]KG-NH2 / II: {CH2CO}-YRRPREQIIIGSLWVFCG[AEEA][AEEA][AEEA][AEEA] (amide I:23-II:C; thioether I:N-I:17, II:N-II:17) [Dimer 1]
SARS-CoV-2 pseudoviruses
  IC50: 30 nM

## I: {CH2CO}-YRRPREQIIIGSLWVFCG[AEEA][AEEA][AEEA][AEEA][AEEA][AEEA]KG-NH2 / II: {CH2CO}-YRRPREQIIIGSLWVFCG[AEEA][AEEA][AEEA][AEEA][AEEA][AEEA] (amide I:25-II:C; thioether I:N-I:17, II:N-II:17) [Dimer 3]
SARS-CoV-2 pseudoviruses
  IC50: 90 nM

## I: {CH2CO}-YRRPREQIIIGSLWVFCG[AEEA][AEEA][AEEA][AEEA][AEEA][AEEA][AEEA][AEEA]KG-NH2 / II: {CH2CO}-YRRPREQIIIGSLWVFCG[AEEA][AEEA][AEEA][AEEA][AEEA][AEEA][AEEA][AEEA] (amide I:27-II:C; thioether I:N-I:17, II:N-II:17) [Dimer 4]
SARS-CoV-2 pseudoviruses
  IC50: 10 nM

## IILYRTYFQPFRWEF [SARS1spikeL2]
[5]
  enrichment in final round (% of total sequences): 5.58%

## IVLHDGLRSATVLWI [SARS2R3L2]
[4]
  ΔTm, melting point change: 1.5 °C
[5]
  enrichment in final round (% of total sequences): 0.77%

## LIWYQSYYQTEVVWF [SARS1spikeL1]
[5]
  enrichment in final round (% of total sequences): 8.32%

## LVFHDNVYTVTVVHV [SARS2R3L1]
[4]
  ΔTm, melting point change: 1 °C
[5]
  enrichment in final round (% of total sequences): 0.71%

## NARILQRWFPELAHL [SARS2D1]
[4]
  ΔTm, melting point change: 0 °C
[5]
  enrichment in final round (% of total sequences): 11.88%

## SIENYLKKLGYVLLW [SARS2D4]
[4]
  ΔTm, melting point change: −0.5 °C
[5]
  enrichment in final round (% of total sequences): 5.53%

## SVVFSADGRHYYWDS [SARS2L3]
[4]
  ΔTm, melting point change: 0 °C
[5]
  enrichment in final round (% of total sequences): 1.25%

## TSQICQELDALGDWI [SARS1spikeD2]
[5]
  enrichment in final round (% of total sequences): 7.71%

## VIWHPDRWTSVVLQI [SARS2L2]
[4]
  ΔTm, melting point change: 2 °C
[5]
  enrichment in final round (% of total sequences): 17.02%
